The record followed here is article PMC12040169 (PLOS Biology, 2025).

SMILES strings stand for the structures.

This series is described as follows: in vitro. To be noted: human, hela cells, % viability.
The viability is a read-out of living cells in per cent, often relative to untreated cells. For the compound `O=S(=O)(c1ccc(-c2ccccc2)cc1)N1CCCN(Cc2cccc(F)c2F)CC1` [CBK063111], the viability at 28.5 h, 10 µM was 113%.

With `CC(=O)Oc1cccc(CN2CCCN(S(=O)(=O)c3ccc(-c4ccccc4)cc3)CC2)c1` [CBK063113], the viability at 28.5 h, 10 µM is 94.1%.

Take `COC(=O)CCc1ccc(S(=O)(=O)N2CCCN(Cc3ccc4c(c3)OCO4)CC2)cc1` [CBK063130]: the viability at 28.5 h, 10 µM was 106%.

`CCCC(=O)c1ccc(S(=O)(=O)N2CCN(Cc3cccc(F)c3C)CC2)cc1` [CBK063152]: the viability at 28.5 h, 10 µM is 88.4%.

Consider `CCCC(=O)c1ccc(S(=O)(=O)N2CCN(Cc3ccc4cccc(O)c4n3)CC2)cc1` [CBK063158], for which the viability at 28.5 h, 10 µM worked out at 102%.

For `CCCC(=O)c1ccc(S(=O)(=O)N2CCN(Cc3c[nH]nc3-c3cccs3)CC2)cc1` [CBK063160], the viability at 28.5 h, 10 µM was found to be 79.6%.

For `COc1ccc([C@@]23CC[C@@H](NC(=O)Nc4cccc(C(F)(F)F)c4F)C[C@@H]2CN(C)C3)cc1OC` [CBK063195A], the viability at 28.5 h, 10 µM stood at 98.5%.

As to `O=C(Nc1ccc2cc(Br)cnc2n1)c1ccccc1[N+](=O)[O-]` [CBK063253], the viability at 28.5 h, 10 µM was 96.8%.

On to `Cc1ccc(NC(=O)Nc2ccc3cc(Br)cnc3n2)c(C)c1` [CBK063269], for which the viability at 28.5 h, 10 µM was determined as 85.8%.

`CCOC(=O)NC(=O)Nc1cc2ccccc2c(Br)n1` [CBK063282]: the viability at 28.5 h, 10 µM worked out at 88.1%.

With `O=C(Nc1cc2cccnc2c(Br)n1)Nc1ccc(F)cc1C(F)(F)F` [CBK063287], the viability at 28.5 h, 10 µM came out at 88.8%.

For the compound `CCCCOc1ccc(NC(=O)Nc2cc3cccnc3c(Br)n2)cc1` [CBK063291], the viability at 28.5 h, 10 µM is 78.1%.

Regarding `Cc1ccccc1C(=O)NCC(=O)Nc1cc2ccccc2c(Br)n1` [CBK063298], the viability at 28.5 h, 10 µM came to 89.4%.

Consider `CC(=O)OCC(=O)Nc1ccc2cc(Br)cnc2n1` [CBK063311], for which the viability at 28.5 h, 10 µM was found to be 91.1%.

Take `Cc1ccccc1C(=O)NCC(=O)Nc1ccc2cc(Br)cnc2n1` [CBK063312]: the viability at 28.5 h, 10 µM amounted to 96.5%.

Consider `O=C(Nc1ccc2cc(Br)cnc2n1)C(F)(F)F` [CBK063313], for which the viability at 28.5 h, 10 µM worked out at 90%.

For the compound `O=C1N=C(N2CCCCCC2)SC1CC(=O)N1CCCc2ccccc21` (stereo not shown) [CBK063336], the viability at 28.5 h, 10 µM is 93.4%.

Turning to `O=C1N=C(NC2CCCCCC2)SC1CC(=O)N1CCCC1` (stereo not shown) [CBK063342], the viability at 28.5 h, 10 µM worked out at 95.3%.

On to `COc1ccccc1-c1cnc(N)c(NCc2ccccc2)n1` [CBK063357], for which the viability at 28.5 h, 10 µM amounted to 94.3%.

With `CC(=O)Nc1cccc(-c2cnc(N)c(N3CCN(C)CC3)n2)c1` [CBK063361], the viability at 28.5 h, 10 µM was 107%.

Turning to `Nc1ncc(-c2cccc(O)c2)nc1N1CCOCC1` [CBK063376], the viability at 28.5 h, 10 µM turned out to be 100%.

Take `CN(C)CCNC(=O)c1cccc(-c2cnc(N)c(N3CCN(C)CC3)n2)c1` [CBK063393]: the viability at 28.5 h, 10 µM was 95%.

For `Nc1ncc(-c2ccccc2CO)nc1N1CCN(CCO)CC1` [CBK063404], the viability at 28.5 h, 10 µM came out at 100%.

With `Nc1ncc(-c2cccc(O)c2)nc1N1CCC(C(=O)O)CC1` [CBK063405], the viability at 28.5 h, 10 µM was found to be 85.3%.

With `Nc1ncc(-c2cccc(CO)c2)nc1N1CCOCC1` [CBK063406], the viability at 28.5 h, 10 µM worked out at 97.6%.

In the case of `Nc1ncc(-c2cccc(-c3ccccc3)c2)nc1N1CCN(CCO)CC1` [CBK063410], the viability at 28.5 h, 10 µM was determined as 113%.

Take `Nc1ncc(-c2cccc(C(=O)O)c2)nc1N1CCOCC1` [CBK063415]: the viability at 28.5 h, 10 µM is 101%.

As for `CN1CCN(c2nc(-c3ccc(-c4ccccc4)cc3)cnc2N)CC1` [CBK063421], the viability at 28.5 h, 10 µM amounted to 106%.

As to `Nc1ncc(-c2cncnc2)nc1N1CCOCC1` [CBK063422], the viability at 28.5 h, 10 µM came to 93.7%.

As for `CN1CCN(c2nc(-c3ccco3)cnc2N)CC1` [CBK063449], the viability at 28.5 h, 10 µM is 109%.

Consider `Nc1ncc(-c2ccccc2)nc1NCc1cccnc1` [CBK063452], for which the viability at 28.5 h, 10 µM was found to be 116%.

As to `NC(=O)c1cccc(-c2cnc(N)c(N3CCC[C@@H]3CO)n2)c1` [CBK063458], the viability at 28.5 h, 10 µM came to 99.5%.

As to `CN1CCN(c2nc(-c3cccc4ncccc34)cnc2N)CC1` [CBK063465], the viability at 28.5 h, 10 µM came to 107%.

Regarding `Nc1ncc(-c2cccc3cccnc23)nc1N1CCC[C@@H]1CO` [CBK063470], the viability at 28.5 h, 10 µM amounted to 108%.

`COc1cc(-c2cnc(N)c(N3CCC[C@@H]3CO)n2)cc(OC)c1OC` [CBK063478]: the viability at 28.5 h, 10 µM worked out at 101%.

Regarding `CN(C)CCN1CCN(c2nc(-c3cccc4ccccc34)cnc2N)CC1` [CBK063479], the viability at 28.5 h, 10 µM amounted to 94.7%.

On to `Nc1ncc(-c2ccc3c(c2)OCO3)nc1NCc1ccncc1` [CBK063483], for which the viability at 28.5 h, 10 µM is 106%.

Consider `CN(C)CCN1CCN(c2nc(-c3ccc4c(c3)OCO4)cnc2N)CC1` [CBK063495], for which the viability at 28.5 h, 10 µM amounted to 93.9%.

Consider `COc1ccc(-c2cnc(N)c(N3CCC[C@@H]3CO)n2)c(OC)c1OC` [CBK063505], for which the viability at 28.5 h, 10 µM is 98.5%.

For `Nc1ncc(-c2cccc3ccccc23)nc1N1CCC[C@@H]1CO` [CBK063517], the viability at 28.5 h, 10 µM was 94.1%.

Take `COc1cc(-c2cnc(N)c(NCC(C)(C)CO)n2)cc(OC)c1OC` [CBK063523]: the viability at 28.5 h, 10 µM came to 92.2%.

As for `COc1ccc(-c2cnc(N)c(NCc3cccnc3)n2)c(OC)c1OC` [CBK063540], the viability at 28.5 h, 10 µM was 99%.

As to `COc1ccc(-c2cnc(N)c(NCC(C)(C)CO)n2)c(OC)c1OC` [CBK063542], the viability at 28.5 h, 10 µM came out at 103%.

Consider `Nc1ncc(-c2ccc(F)c(Cl)c2)nc1NCCCO` [CBK063555], for which the viability at 28.5 h, 10 µM amounted to 101%.

In the case of `COc1cccc(-c2cnc(N)c(N3CCN(CCN(C)C)CC3)n2)c1` [CBK063561], the viability at 28.5 h, 10 µM stood at 108%.

In the case of `COCCNc1nc(-c2cccc3ccccc23)cnc1N` [CBK063574], the viability at 28.5 h, 10 µM stood at 99.1%.

Regarding `Nc1ncc(-c2cncnc2)nc1NCc1ccccc1` [CBK063584], the viability at 28.5 h, 10 µM was 103%.

For the compound `Nc1ncc(-c2cccc3ccccc23)nc1NC1CCCCC1` [CBK063588], the viability at 28.5 h, 10 µM came to 94%.

In the case of `CC(C)(CO)CNc1nc(-c2ccc(F)cc2)cnc1N` [CBK063589], the viability at 28.5 h, 10 µM was 95.7%.

Consider `CC(=O)c1ccc(-c2cnc(N)c(NC3CCCCC3)n2)s1` [CBK063596], for which the viability at 28.5 h, 10 µM was determined as 106%.

As to `Nc1ncc(-c2ccsc2)nc1NCc1ccncc1` [CBK063614], the viability at 28.5 h, 10 µM amounted to 107%.

As for `Nc1ncc(-c2cccc3cccnc23)nc1NCc1ccncc1` [CBK063622], the viability at 28.5 h, 10 µM came out at 87.4%.

Consider `Nc1ncc(-c2ccncc2)nc1NCCCN1CCOCC1` [CBK063631], for which the viability at 28.5 h, 10 µM came to 98.9%.

As to `Nc1ncc(-c2ccoc2)nc1NCc1ccncc1` [CBK063656], the viability at 28.5 h, 10 µM is 95.1%.

Regarding `Nc1ncc(-c2cccc3ccccc23)nc1Nc1ccc2[nH]ccc2c1` [CBK063659], the viability at 28.5 h, 10 µM was 90.9%.

Take `NC(=O)c1cccc(-c2cnc(N)c(NCc3ccco3)n2)c1` [CBK063660]: the viability at 28.5 h, 10 µM is 116%.

Regarding `Nc1ncc(-c2ccc3c(c2)OCO3)nc1Nc1ccc2[nH]ccc2c1` [CBK063667], the viability at 28.5 h, 10 µM came out at 94.6%.

Turning to `Nc1ncc(-c2ccco2)nc1NCc1ccco1` [CBK063682], the viability at 28.5 h, 10 µM was 91.8%.

For the compound `Nc1ncc(-c2ccc(O)cc2)nc1N1CCN(CCO)CC1` [CBK063685], the viability at 28.5 h, 10 µM stood at 105%.

In the case of `Nc1ncc(-c2cccc(/C=C/C(=O)O)c2)nc1NCc1ccco1` [CBK063691], the viability at 28.5 h, 10 µM was 98.7%.

Consider `CC(C)[C@H](CO)Nc1nc(-c2cccc3ccccc23)cnc1N` [CBK063701], for which the viability at 28.5 h, 10 µM is 101%.

As to `COc1ccccc1-c1cnc(N)c(N[C@H](C)c2ccccc2)n1` [CBK063705], the viability at 28.5 h, 10 µM was 102%.

With `CC(C)CNc1nc(-c2cc(C(F)(F)F)cc(C(F)(F)F)c2)cnc1N` [CBK063708], the viability at 28.5 h, 10 µM is 85.7%.

For the compound `CC(C)[C@H](CO)Nc1nc(-c2ccc(S(C)(=O)=O)cc2)cnc1N` [CBK063718], the viability at 28.5 h, 10 µM amounted to 110%.

Consider `COc1ccccc1-c1cnc(N)c(N[C@@H](C)c2ccccc2)n1` [CBK063721], for which the viability at 28.5 h, 10 µM amounted to 107%.

For `CC(C)[C@@H](CO)Nc1nc(-c2cccc3ccccc23)cnc1N` [CBK063725], the viability at 28.5 h, 10 µM came to 95.2%.

Consider `CC(C)[C@@H](CO)Nc1nc(-c2occc2C=O)cnc1N` [CBK063733], for which the viability at 28.5 h, 10 µM was 102%.

As for `COc1cncc(-c2cnc(N)c(N[C@@H](CO)C(C)C)n2)c1` [CBK063734], the viability at 28.5 h, 10 µM turned out to be 106%.

For `CC(C)[C@@H](CO)Nc1nc(-c2ccc(S(C)(=O)=O)cc2)cnc1N` [CBK063750], the viability at 28.5 h, 10 µM was 91.2%.

With `C[C@H](Nc1nc(-c2ccc(-c3ccccc3)cc2)cnc1N)c1ccccc1` [CBK063760], the viability at 28.5 h, 10 µM was determined as 93.5%.

Regarding `COc1cc(-c2cnc(N)c(N[C@H](CO)C(C)C)n2)cc(OC)c1OC` [CBK063765], the viability at 28.5 h, 10 µM came to 113%.

On to `C[C@H](Nc1nc(-c2cccc3ncccc23)cnc1N)c1ccccc1` [CBK063771], for which the viability at 28.5 h, 10 µM is 97.6%.

Consider `Nc1ncc(-c2occc2C=O)nc1NC1CCOCC1` [CBK063789], for which the viability at 28.5 h, 10 µM stood at 103%.

Consider `Nc1ncc(-c2ccccc2CO)nc1NC1CCOCC1` [CBK063799], for which the viability at 28.5 h, 10 µM amounted to 98.7%.

`Nc1ncc(-c2cc(C(F)(F)F)cc(C(F)(F)F)c2)nc1NC1CCC(O)CC1` (stereo not shown) [CBK063808]: the viability at 28.5 h, 10 µM was 92%.

Turning to `CCCC/C=C/c1cnc(N)c(Nc2ccc3[nH]ccc3c2)n1` [CBK063811], the viability at 28.5 h, 10 µM is 95.7%.

As for `Nc1ncc(-c2ccco2)nc1NCC1CCOCC1` [CBK063825], the viability at 28.5 h, 10 µM came to 100%.

In the case of `COc1ccc(C(C)C)cc1-c1cnc(N)c(Nc2ccc3[nH]ccc3c2)n1` [CBK063827], the viability at 28.5 h, 10 µM worked out at 97.1%.

On to `Nc1ncc(-c2cccnc2)nc1NC1CCC(O)CC1` (stereo not shown) [CBK063840], for which the viability at 28.5 h, 10 µM turned out to be 92.7%.

In the case of `COc1ccc(-c2cnc(N)c(NC3CCOCC3)n2)c(OC)c1OC` [CBK063844], the viability at 28.5 h, 10 µM was 113%.

As to `CC(=O)Nc1cccc(-c2cnc(N)c(NC3CCOCC3)n2)c1` [CBK063845], the viability at 28.5 h, 10 µM amounted to 107%.

With `Nc1ncc(-c2ccsc2)nc1NCC1CCOCC1` [CBK063848], the viability at 28.5 h, 10 µM worked out at 102%.
